Results from patent publication US10046003B2, “Composition for treating neuropathy, a process and a method of treatment thereof” (INDUS BIOTECH PRIVATE LIMITED, priority 2013, dated 2018).

Test system: PSNL rats
Test: Motor nerve conduction velocity, comparison of Test composition vs alcoholic extract of fenugreek vs Pinitol stand-alone in PSNL rat model
Type: in vivo
Description: To compare efficacy of test Composition with Alcoholic Extract of Fenugreek (30 mg/kg p.o) and Pinitol stand-alone (30 mg/kg) in neuropathy, PSNL rat model is used. The sciatic nerve of the rats is exposed and they received injury by a process where a 4-0 silk suture are inserted into the nerve with ⅜ curve, with a reverse-cutting mini needle and is tightly ligated so that the dorsal ⅓-½ of the nerve thickness are trapped in the ligature. They received only vehicle (Distilled water). Male wistar rats weighing 200-220 g average are used for the study. 500 g of fenugreek seeds is extracted by using alcoholic extraction procedure. This extract is obtained in a dry form by using vacuum evaporation technique. […] When compared with sham operated rats there is significant decrease in nerve conduction velocity in PSNL control rats. […] The data was analysed by one way ANOVA followed by Bonferroni's Multiple Comparison Test, wherein: […]

Compound: CO[C@H]1[C@H](O)[C@@H](O)[C@@H](O)[C@H](O)[C@@H]1O [Pinitol stand-alone, 3-O-methyl-1,2,4 cis-3,5,6 transhexahydroxycyclohexanol]
- nerve conduction velocity when compared with PSNL control rats (30 mg/kg p.o., day 28): marginal effect
- Motor Nerve Conduction Velocity (m/s) (PSNL rats, 30 mg/kg p.o. chronic administration, Day 28 (after treatment)): 13.97 m/s
